In ChEMBL document CHEMBL1129019, “CCK-4 restricted analogues containing a 3-oxoindolizidine skeleton” (Bioorg Med Chem Lett, 1996):
pIC50: −log10 of the molar value.

Columns and labels:
[1] = target: T1, Gastrin/cholecystokinin type B receptor (Rattus norvegicus, UniProt P30553); assay: Binding of [3H]propionyl-CCK-8 to Cholecystokinin type B receptor from rat cerebral cortex.; type: tissue-based
T1 sequence (P30553 whole entry): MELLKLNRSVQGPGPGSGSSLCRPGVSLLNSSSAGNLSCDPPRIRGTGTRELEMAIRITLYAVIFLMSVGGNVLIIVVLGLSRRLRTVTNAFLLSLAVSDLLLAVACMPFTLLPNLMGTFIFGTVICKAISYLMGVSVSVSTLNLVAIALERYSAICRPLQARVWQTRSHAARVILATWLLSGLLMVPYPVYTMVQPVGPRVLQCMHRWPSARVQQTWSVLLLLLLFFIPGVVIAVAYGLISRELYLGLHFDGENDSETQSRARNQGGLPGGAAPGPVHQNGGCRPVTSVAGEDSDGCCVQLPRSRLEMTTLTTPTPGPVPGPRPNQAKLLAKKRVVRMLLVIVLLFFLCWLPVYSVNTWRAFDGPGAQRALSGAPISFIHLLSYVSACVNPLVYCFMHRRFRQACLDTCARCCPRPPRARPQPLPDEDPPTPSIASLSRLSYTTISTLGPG

[2] = target: T2, Cholecystokinin receptor type A (Rattus norvegicus, UniProt P30551); assay: Binding of [3H]propionyl-CCK-8 to Cholecystokinin type A receptor from rat pancreas
T2 sequence (P30551 whole entry): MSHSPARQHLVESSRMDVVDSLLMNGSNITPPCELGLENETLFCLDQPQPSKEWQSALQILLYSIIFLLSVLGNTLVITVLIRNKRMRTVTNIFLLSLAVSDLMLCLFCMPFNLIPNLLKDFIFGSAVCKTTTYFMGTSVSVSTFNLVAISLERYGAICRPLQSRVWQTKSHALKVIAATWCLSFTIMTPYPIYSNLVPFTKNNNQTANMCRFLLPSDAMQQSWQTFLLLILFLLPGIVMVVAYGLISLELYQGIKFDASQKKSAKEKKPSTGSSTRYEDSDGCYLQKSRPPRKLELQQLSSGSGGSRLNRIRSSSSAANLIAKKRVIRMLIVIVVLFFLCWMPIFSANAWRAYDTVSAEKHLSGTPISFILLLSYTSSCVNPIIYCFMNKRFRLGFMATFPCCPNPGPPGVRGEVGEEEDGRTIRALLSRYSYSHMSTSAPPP

pIC50 [1] | pIC50 [2] | SMILES
8.05 | 5.95 | CC1(C)[C@H]2CC[C@@]1(C)[C@H](OC(=O)N[C@](C)(Cc1c[nH]c3ccccc13)C(=O)NC[C@H](NC(=O)CCC(=O)O)c1ccccc1)C2
6.09 | < 5.00 | CC(C)(C)OC(=O)N[C@H](Cc1c[nH]c2ccccc12)C(=O)N[C@H]1CCCN2C(=O)[C@](Cc3ccccc3)(C(N)=O)C[C@H]12
6.66 | < 5.00 | COC(=O)[C@]1(Cc2ccccc2)C[C@@H]2[C@@H](NC(=O)[C@@H](Cc3c[nH]c4ccccc34)NC(=O)C34CC5CC(CC(C5)C3)C4)CCCN2C1=O
< 5.00 | < 5.00 | COC(=O)[C@]1(Cc2ccccc2)C[C@H]2[C@H](NC(=O)[C@H](Cc3c[nH]c4ccccc34)NC(=O)OC(C)(C)C)CCCN2C1=O
5.66 | 6.01 | COC(=O)[C@@]1(Cc2ccccc2)C[C@H]2[C@H](NC(=O)[C@@H](Cc3c[nH]c4ccccc34)NC(=O)C34CC5CC(CC(C5)C3)C4)CCCN2C1=O
5.43 | < 5.00 | COC(=O)[C@]1(Cc2ccccc2)C[C@@H]2[C@@H](NC(=O)[C@@H](Cc3c[nH]c4ccccc34)NC(=O)OC(C)(C)C)CCCN2C1=O
< 5.00 | < 5.00 | COC(=O)[C@@]1(Cc2ccccc2)C[C@@H]2[C@@H](NC(=O)[C@@H](Cc3c[nH]c4ccccc34)NC(=O)OC(C)(C)C)CCCN2C1=O
< 5.00 | < 5.00 | COC(=O)[C@@]1(Cc2ccccc2)C[C@H]2[C@H](NC(=O)[C@@H](Cc3c[nH]c4ccccc34)NC(=O)OC(C)(C)C)CCCN2C1=O
< 5.00 | 5.63 | COC(=O)[C@@]1(Cc2ccccc2)C[C@@H]2[C@@H](NC(=O)[C@H](Cc3c[nH]c4ccccc34)NC(=O)OC(C)(C)C)CCCN2C1=O
< 5.00 | 5.99 | CC(C)(C)OC(=O)N[C@@H](Cc1c[nH]c2ccccc12)C(=O)N[C@H]1CCCN2C(=O)[C@@](Cc3ccccc3)(C(N)=O)C[C@H]12
5.45 | < 5.00 | CC(C)(C)OC(=O)N[C@@H](Cc1c[nH]c2ccccc12)C(=O)N[C@H]1CCCN2C(=O)[C@](Cc3ccccc3)(C(N)=O)C[C@H]12
